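A five-concentration, 48-hour dose response in 96-well plates underlies each endpoint, interpolated linearly between surrounding concentrations. TGI is the concentration that stops growth completely.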
Tests used:
Assay in all cases: NCI tumour cell line growth inhibition, 48 h
DMS 114 small cell lung = test system: DMS 114 small cell lung
DMS 273 small cell lung = test system: DMS 273 small cell lung
HOP-18 NSCLC = test system: HOP-18 NSCLC
NCI-H226 lung = test system: NCI-H226 lung
M19-MEL melanoma = test system: M19-MEL melanoma
XF 498 CNS = test system: XF 498 CNS
MOLT-4 leukemia = test system: MOLT-4 leukemia
SNB-78 CNS = test system: SNB-78 CNS
DLD-1 colon = test system: DLD-1 colon
KM20L2 colon = test system: KM20L2 colon
LXFL 529 NSCLC = test system: LXFL 529 NSCLC
SK-MEL-5 melanoma = test system: SK-MEL-5 melanoma
OVCAR-5 ovarian = test system: OVCAR-5 ovarian
DU-145 prostate = test system: DU-145 prostate
HS 578T breast = test system: HS 578T breast
BT-549 breast = test system: BT-549 breast
TK-10 renal = test system: TK-10 renal
RXF-631 renal = test system: RXF-631 renal

SMILES | TGI (DMS 114 small cell lung) | TGI (DMS 273 small cell lung) | TGI (HOP-18 NSCLC) | TGI (NCI-H226 lung) | TGI (M19-MEL melanoma) | TGI (XF 498 CNS) | TGI (MOLT-4 leukemia) | TGI (SNB-78 CNS) | TGI (DLD-1 colon) | TGI (KM20L2 colon) | TGI (LXFL 529 NSCLC) | TGI (SK-MEL-5 melanoma) | TGI (OVCAR-5 ovarian) | TGI (DU-145 prostate) | TGI (HS 578T breast) | TGI (BT-549 breast) | TGI (TK-10 renal) | TGI (RXF-631 renal)
COc1ccc(N2C(=O)C3c4[nH]c5ccccc5c4C4CC(C)CC(C)C4C3C2=O)cc1 (stereo not drawn) | > 100 µM | > 100 µM | > 100 µM | > 100 µM | > 100 µM | > 100 µM | > 100 µM | > 100 µM | > 100 µM | > 100 µM | > 100 µM | > 100 µM | – | – | – | – | – | –
Nc1nc2n[nH]nc2c(=O)[nH]1 | 54.7 µM | 18.2 µM | 85.3 µM | 57.5 µM | – | – | 4.35 µM | > 100 µM | > 100 µM | > 100 µM | > 100 µM | 13.8 µM | > 88.4 µM | > 57.5 µM | 20.4 µM | 37.8 µM | 12.7 µM | –
CN(C)CC1CCCC(CN(C)C)C1=NOC(=O)c1ccccc1 (stereo not drawn) | > 100 µM | > 100 µM | > 100 µM | > 100 µM | > 100 µM | > 100 µM | > 100 µM | > 100 µM | > 100 µM | > 100 µM | > 100 µM | > 100 µM | > 100 µM | – | – | – | > 100 µM | –
NC(CCC(=O)NC(CSC(=O)N(O)c1ccccc1)C(=O)NCC(=O)O)C(=O)O (stereo not drawn) | > 1000 µM | > 1000 µM | – | > 1000 µM | > 1000 µM | – | > 1000 µM | > 1000 µM | > 1000 µM | > 1000 µM | > 1000 µM | > 1000 µM | > 1000 µM | – | – | – | > 1000 µM | –
CC(C)C(Sc1nc(-c2ccccc2)c(-c2ccccc2)[nH]1)C(=O)NN (stereo not drawn) | > 100 µM | > 100 µM | – | > 100 µM | > 100 µM | > 100 µM | > 100 µM | > 100 µM | > 100 µM | > 100 µM | > 100 µM | > 100 µM | > 100 µM | – | – | – | > 100 µM | –
CSc1sc(=S)sc1C(=O)N(C)c1ccccc1 | > 100 µM | > 100 µM | – | > 100 µM | > 100 µM | > 100 µM | > 100 µM | > 100 µM | – | > 100 µM | > 100 µM | > 100 µM | > 100 µM | – | – | – | > 100 µM | –
COc1cccc(N2C(=O)/C(=C\c3ccccc3)SC2c2cc(OC)c(OC)c(OC)c2)c1 (stereo not drawn) | – | – | – | > 100 µM | – | – | > 100 µM | – | – | – | – | > 100 µM | > 100 µM | > 100 µM | > 100 µM | > 100 µM | > 100 µM | –
Cn1c(Cl)cn2c3nc4ccccc4nc3c(=O)c(C#N)c12 | > 100 µM | > 100 µM | > 100 µM | > 100 µM | > 100 µM | > 100 µM | > 100 µM | > 100 µM | > 100 µM | – | > 100 µM | > 100 µM | > 100 µM | > 100 µM | > 100 µM | > 100 µM | > 100 µM | –
O=C(Cc1ccc(Cl)cc1)Nc1ccc2oc(-c3ccccc3)nc2c1 | – | – | – | > 100 µM | – | – | > 100 µM | – | – | – | – | > 100 µM | > 100 µM | > 100 µM | > 100 µM | > 100 µM | > 100 µM | –
c1ccc2c(c1)cc1c3[nH]c4ccccc4c3ccn21 | – | – | – | > 10 µM | – | – | > 10 µM | – | – | – | – | > 10 µM | > 10 µM | > 10 µM | > 10 µM | > 10 µM | > 10 µM | –
NC1CC(Cl)c2c(Cl)sc(Cl)c21 (stereo not drawn) | – | – | – | > 100 µM | – | – | > 100 µM | – | – | – | – | > 100 µM | > 100 µM | > 100 µM | > 100 µM | > 100 µM | > 100 µM | –
S=C1CSc2c(ccc3ccccc23)N1 | – | – | – | > 100 µM | – | – | > 100 µM | – | – | – | – | > 100 µM | > 100 µM | > 100 µM | > 100 µM | > 100 µM | > 100 µM | –
Nc1[nH]c(=S)c2c(N)n[nH]c2c1C(=O)Nc1ccccc1 | – | – | – | > 100 µM | – | – | > 100 µM | – | – | – | – | > 100 µM | > 100 µM | > 100 µM | > 100 µM | > 100 µM | > 100 µM | –
CCCCCCCCCCCCCCCCOCC(CP(=O)([O-])OCC[n+]1ccccc1)OC (stereo not drawn) | 26.5 µM | 5.63 µM | – | 15.5 µM | 25.2 µM | 24.7 µM | 18.9 µM | 31.1 µM | 11.1 µM | – | 23.5 µM | 27.7 µM | – | – | – | – | 8.09 µM | 28.9 µM
O=C(O)CCc1cccc2c1oc1c(CCC(=O)O)cccc12 | > 100 µM | > 100 µM | > 100 µM | > 100 µM | > 100 µM | > 100 µM | > 100 µM | > 100 µM | > 100 µM | > 100 µM | > 100 µM | > 100 µM | > 100 µM | – | – | – | > 100 µM | –
OC1[C@H](O)CN(OCc2ccccc2)C[C@@H]1O (stereo partly drawn) | – | – | – | > 100 µM | – | – | > 100 µM | – | – | – | – | > 100 µM | > 100 µM | > 100 µM | > 100 µM | > 100 µM | > 100 µM | –
CCCCN(Cc1ccccc1)C(=NC#N)N(Cc1ccccc1)Cc1ccccc1 | – | 43.6 µM | – | 70.5 µM | 62.6 µM | – | > 100 µM | > 100 µM | > 100 µM | 95.6 µM | 34.3 µM | 29.4 µM | > 100 µM | > 100 µM | 99.1 µM | 62.8 µM | > 100 µM | –
COC(=O)c1c2c(cc3c1CC1(Cc4ccc(C(C)=O)cc4C1)C3)CCC2 (stereo not drawn) | – | – | – | > 100 µM | – | – | 86.5 µM | – | – | – | – | 45.4 µM | > 100 µM | > 100 µM | 80.7 µM | > 100 µM | > 100 µM | –
Nc1ncnc2c1ncn2C1OC(CO)C(O)C(O)C1O (stereo not drawn) | – | – | – | > 100 µM | – | – | > 100 µM | – | – | – | – | > 100 µM | > 100 µM | > 100 µM | > 100 µM | > 100 µM | > 100 µM | –
COC(=O)CN1SC2(SC13C(C)(C)C(=O)C3(C)C)C(C)(C)C(=O)C2(C)C | – | – | – | 93.8 µM | – | – | > 100 µM | – | – | – | – | > 100 µM | > 100 µM | > 100 µM | > 100 µM | 90.3 µM | > 100 µM | –
O=P1(c2ccccc2)C(c2ccccc2)=CC=C1c1ccccc1 | – | – | – | > 100 µM | – | – | 44 µM | – | – | – | – | 28.4 µM | > 100 µM | > 100 µM | > 100 µM | > 100 µM | 60.1 µM | –
CC1(C)C/C(=N/O)c2c(nc3ccc4ccccc4c3c2-c2ccc(Cl)cc2)C1 | – | – | – | 46.3 µM | – | – | 52.6 µM | – | – | – | – | > 100 µM | > 100 µM | 40.9 µM | 76.2 µM | 30.9 µM | 33.9 µM | –
O=c1n(-c2ccccc2)c(=O)n2n1C1Cc3ccccc3C12 (stereo not drawn) | – | – | – | > 100 µM | – | – | > 100 µM | – | – | – | – | > 100 µM | > 100 µM | > 100 µM | > 100 µM | > 100 µM | > 100 µM | –

— PubChem BioAssay (NCI)
